Laboratory results from ChEMBL document CHEMBL1268971, “4,5-Dihydro-1H-pyrazolo[4,3-h]quinazolines as potent and selective Polo-like kinase 1 (PLK1) inhibitors” (Bioorg Med Chem Lett, 2010).
Activity calls are given as the source filed them. No cut-off for these calls is given here.

Legend:
HL-60 = assay: Antiproliferative activity against human HL60 cells after 72 hrs by CellTiter-Glo assay; assay type: functional, cell-based; conditions: HL-60, 72 h
[1] = AUC (0 to infinity) in CD1 mouse at 10 mg/kg, po administered as single dose by LC/MS/MS analysis; assay type: ADME, organism-based; set-up: time infinity, dose 10 mg/kg, route oral; conditions: plasma
[2] = Antiproliferative activity against human A2780/ADR cells after 72 hrs by CellTiter-Glo assay; assay type: functional, cell-based
[3] = Solubility of the compound at 105 Tween 80; assay type: physicochemical
Mus musculus = assay: Toxicity in CD1 mouse xenografted with human HCT116 cells assessed as reversible body weight loss at 60 mg/kg, po daily administered on day 1, 2, 3 post-implantation in weekly schedule of 2 cycles; conditions: in vivo
[4] = Cmax in CD1 mouse at 10 mg/kg, po administered as single dose by LC/MS/MS analysis; assay type: ADME, organism-based; set-up: dose 10 mg/kg, route oral; conditions: in vivo
[5] = Terminal half life in CD1 mouse at 10 mg/kg, iv administered as single dose by LC/MS/MS analysis; assay type: ADME, organism-based; set-up: dose 10 mg/kg, route intravenous; conditions: in vivo, read-out: beta t1/2 (converted)
[6] = target: ALK tyrosine kinase receptor (Homo sapiens, UniProt Q9UM73); assay: Inhibition of ALK
HCT-116 [7] = assay: Antitumor against human HCT116 cells xenografted in CD1 mouse assessed as tumor growth inhibition at 30 mg/kg, iv BID administered on day 1, 2 post-implantation in weekly schedule of 3 cycles measured on day 32; assay type: functional; conditions: read-out: TGI
HCT-116 [8] = assay: Induction of apoptosis in human HCT116 cells assessed as induction of PARP cleavage at 0.005 to 0.5 uM after 24 hrs; assay type: functional, cell-based
[9] = target: Cyclin-dependent kinase 2/cyclin A (Homo sapiens, UniProt P24941); assay: Inhibition of CDK2/Cyclin A; assay type: protein-complex assay
LoVo = assay: Antiproliferative activity against human LoVo cells after 72 hrs by CellTiter-Glo assay; assay type: functional, cell-based
[10] = Terminal half life in CD1 mouse at 10 mg/kg, po administered as single dose by LC/MS/MS analysis; assay type: ADME, organism-based; set-up: dose 10 mg/kg, route oral; conditions: in vivo, read-out: beta t1/2 (converted)
MIA PaCa-2 = assay: Antiproliferative activity against human MIAPaCa2 cells after 72 hrs by CellTiter-Glo assay; assay type: functional, cell-based; conditions: MIA PaCa-2, 72 h
[11] = Oral bioavailability in CD1 mouse at 10 mg/kg administered as single dose by LC/MS/MS analysis; assay type: ADME, organism-based; conditions: in vivo
HT-29 = assay: Antiproliferative activity against human HT-29 cells after 72 hrs by CellTiter-Glo assay; assay type: functional, cell-based; conditions: HT-29, 72 h

ALK tyrosine kinase receptor, sequence (Q9UM73 whole entry): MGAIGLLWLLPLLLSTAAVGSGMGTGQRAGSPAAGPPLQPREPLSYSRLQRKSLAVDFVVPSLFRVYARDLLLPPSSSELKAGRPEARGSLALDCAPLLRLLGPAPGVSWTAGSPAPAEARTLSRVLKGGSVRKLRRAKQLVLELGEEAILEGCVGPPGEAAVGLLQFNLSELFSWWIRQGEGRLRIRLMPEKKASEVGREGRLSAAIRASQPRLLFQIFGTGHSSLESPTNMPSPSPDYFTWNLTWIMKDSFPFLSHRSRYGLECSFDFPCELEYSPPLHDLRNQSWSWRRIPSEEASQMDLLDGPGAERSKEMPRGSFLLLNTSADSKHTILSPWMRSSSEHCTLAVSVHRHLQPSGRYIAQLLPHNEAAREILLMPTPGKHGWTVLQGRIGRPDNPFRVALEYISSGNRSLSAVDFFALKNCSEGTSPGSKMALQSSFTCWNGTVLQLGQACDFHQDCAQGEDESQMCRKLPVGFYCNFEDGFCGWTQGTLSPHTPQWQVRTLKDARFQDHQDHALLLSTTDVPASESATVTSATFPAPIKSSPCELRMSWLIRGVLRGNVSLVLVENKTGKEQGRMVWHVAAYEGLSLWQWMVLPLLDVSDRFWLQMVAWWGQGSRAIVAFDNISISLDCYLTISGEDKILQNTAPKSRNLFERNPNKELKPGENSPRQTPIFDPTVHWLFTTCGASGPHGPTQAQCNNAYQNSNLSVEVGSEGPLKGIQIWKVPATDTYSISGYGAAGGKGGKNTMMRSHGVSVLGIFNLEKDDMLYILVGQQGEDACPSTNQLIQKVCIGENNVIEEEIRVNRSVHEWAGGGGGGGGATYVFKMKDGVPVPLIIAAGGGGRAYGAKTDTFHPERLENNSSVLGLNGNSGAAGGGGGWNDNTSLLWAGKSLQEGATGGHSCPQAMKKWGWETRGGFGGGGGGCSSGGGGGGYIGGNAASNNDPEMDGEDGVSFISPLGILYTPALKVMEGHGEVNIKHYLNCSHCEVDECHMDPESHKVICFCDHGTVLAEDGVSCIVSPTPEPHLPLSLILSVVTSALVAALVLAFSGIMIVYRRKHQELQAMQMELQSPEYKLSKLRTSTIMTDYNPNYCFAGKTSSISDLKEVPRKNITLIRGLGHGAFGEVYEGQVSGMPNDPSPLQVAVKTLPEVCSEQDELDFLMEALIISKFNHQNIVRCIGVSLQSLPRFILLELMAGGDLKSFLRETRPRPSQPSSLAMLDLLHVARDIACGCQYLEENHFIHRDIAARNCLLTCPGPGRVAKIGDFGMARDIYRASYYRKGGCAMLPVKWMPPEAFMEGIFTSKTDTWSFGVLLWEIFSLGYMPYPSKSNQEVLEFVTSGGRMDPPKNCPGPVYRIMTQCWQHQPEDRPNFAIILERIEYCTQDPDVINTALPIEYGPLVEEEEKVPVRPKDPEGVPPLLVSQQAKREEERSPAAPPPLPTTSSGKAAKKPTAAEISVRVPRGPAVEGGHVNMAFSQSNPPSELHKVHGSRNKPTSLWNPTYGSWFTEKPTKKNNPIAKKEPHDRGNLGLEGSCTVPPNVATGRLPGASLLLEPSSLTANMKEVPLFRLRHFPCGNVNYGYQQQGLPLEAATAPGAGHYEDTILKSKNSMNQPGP

IC50 (HL-60): 16 nM
AUC(0-inf) [1]: 1.04 µM·h
solubility [3]: > 3200 µg/mL
Cmax [4]: 290 nM
half-life [5]: 0.92 h
IC50 [6]: > 10000 nM
IC50 [9]: > 10000 nM
IC50 (LoVo): 7 nM
half-life [10]: 1.44 h
IC50 (MIA PaCa-2): 52 nM
bioavailability [11]: 21%
IC50 (HT-29): 8 nM
Compound: CN1CCN(c2ccc(OC(F)(F)F)c(Nc3ncc4c(n3)-c3c(c(C(N)=O)nn3C)CC4)c2)CC1
IC50 [2]: 51 nM
Activity (Mus musculus): 13%
inhibition in vivo at 30 mg/kg (HCT-116 [7]): 81%
Activity (HCT-116 [8]): Active
